The results in this text go back to PMC10818380, “Triphenylphosphonium Analogs of Short Peptide Related to Bactenecin 7 and Oncocin 112 as Antimicrobial Agents” (Pharmaceutics, 2024).

≈ marks a conversion by molar mass, not a printed value. Where two headings read alike, the source gives them in different places. A value given as a limit tells only on which side of the number the result lay.

The subject of one test is A549. Kind of test: cells. Here is the method:
(§1) The cytotoxicity of the substances under study was tested using the MTT (3-(4,5-dimethylthiazol-2-yl)-2,5-diphenyltetrazolium bromide) assay with some modifications. The detailed procedure for the MTT assay is given in the Supplementary Materials (Section S5).
(§2) Two thousand five hundred cells per well for the MCF7, HEK293T, and A549 cell lines or 4000 cells per well for the VA13 cell line were plated in 135 µL of DMEM-F12 media with 10% FBS (both Gibco, Waltham, MA, USA) in a 96-well plate and were incubated in a 5% CO2 incubator for the first 16 h, without treatment. Then 15 µL of media-DMSO solutions of the tested substances were added to the cells (the final DMSO concentrations in the media were 1% or less), and the cells were treated for 72 h with 25 nM–50 µM (eight dilutions) of the tested substances (triplicate each). Serial dilutions of DMSO and doxorubicin were used as controls. The MTT reagent (Paneco LLC, Moscow, Russia) was then added to the cells at a final concentration of 0.5 g/L (10× stock solution in PBS was used) and incubated for 2.5 h at 37 °C in the incubator under an atmosphere of 5%
(§3) CO2. The MTT solution was then discarded, and 140 µL of DMSO (PharmaMed LLC, Krasnodar, Russia) was added. The plates were swayed on a shaker (60 rpm) to dissolve the formazan. The absorbance was measured using the VICTOR X5 Multilabel Plate Reader (PerkinElmer, Wa l th a m, MA, USA) at a wavelength of 565 nm (in order to measure formazan concentration). The resu l ts were used to construct a dose-response graph and to estimate IC50 values.
(§4) Figure S11.The dependencies of viability of cells after treatment by tested compounds.
(§5) (1 picture or pasted object on this page, not shown here)

In a further test the test system is MCF7. Kind of test: cells. The test is classed as cell-based, human. Here is the method: as §1, §2, §3, §4, §5
The test system of a further test is HEK293T. The test can be described thus: cells. The test is classed as cell-based, human. The conditions noted are these: 72 h. Here is the method:
as §1, §2, §3, §4, §5

The test system of the next test is VA13. Kind of test: cells. The test is classed as cell-based, human. Here is the method:
as §1, §2, §3, §4, §5

A further test concerns B. subtilis CFR. Kind of test: microbe, parasite or virus in culture. Particulars: 18 h. The test is classed as cell-based. Here is the method: (§6) The MIC values for Bac(1–10), Bac(1–10, R/Y), Bac(1–10, R/Y)-Cn-TPP, TPP-C10-Bac(1–10, R/Y), and Onc112 were determined via LB broth microdilution, as recommended by CLSI in the Methods for Dilution Antimicrobial Susceptibility Tests for Bacteria that Grow Aerobically, Approved Standard, 9th ed., CLSI document M07-A9, using in-house-prepared panels. The compounds were diluted in a 96-well microtiter plate to final concentrations ranging from 0.1 to 100 µM in a 200 µL aliquot of the bacterial suspension, followed by incubation at 37 °C for 18 h. The cell concentration was estimated according to the absorbance (A600). The measurements were performed with a VICTOR X5 Multilabel Plate Reader (PerkinElmer, Waltham, MA, USA). The following bacterial strains were used: E. coli BW25113, E. coli JW0368 ΔsbmA, B. subtilis 168, and B. subtilis CFR [39].

The test system of a further test is B. subtilis 168. Kind of test: microbe, parasite or virus in culture. Format: cell-based. Here is the method: as §6
The next test deals with E. coli BW25113. The test can be described thus: microbe, parasite or virus in culture. Format: cell-based. Particulars: E. coli BW25113, 37 °C, 18 h. Here is the method: as §6
A further test has as its system E. coli JW0368 ΔsbmA. Kind of test: microbe, parasite or virus in culture. The conditions noted are these: for MIC: 18 h. The test is classed as cell-based. Here is the method: as §6
In test [1] the test system is E. coli JW5503 (∆tolC) (KanS) pDualrep2. The test can be described thus: pDualrep2 double-reporter agar plate test. Format: cell-based. The conditions noted are these: 1 µL of 10 mM solution on agar plate. Here is the method:
The “pDualrep2” system was used to evaluate the mechanism of the antimicrobial action of the synthesized compounds. This system is based on the hypersensitive strain E. coli JW5503 (∆tolC) (KanS) transformed with the “pDualrep2” plasmid, which allows one to sort out suppressors of protein synthesis or SOS response inducers. Briefly, 1 µL of 10 mM water solutions of Bac(1–10), Bac(1–10, R/Y), Bac(1–10, R/Y)-Cn-TPP, TPP-C10-Bac(1–10, R/Y), and Onc112 were applied onto the agar plate that already contained a layer of the reporter strain E. coli JW5503 (∆tolC) (KanS) pDualrep2, and then the plate was incubated overnight at 37 °C. The agar plate was scanned using the ChemiDoc^TM Imaging System (Bio-Rad Laboratories, Hercules, CA, USA), containing two channels, “Cy3-blot” (553/574 nm; green pseudocolor) for Turbo Red Fluorescent Protein (TurboRFP) detection and “Cy5-blot” (588/633 nm; red pseudocolor) for Katushka2S fluorescence. […] Levofloxacin (LEV; 50 μg/mL, 1 μL) and erythromycin (ERY; 5 mg/mL, 1 μL) were utilized as positive controls for DNA and protein synthesis inhibitors, respectively.

Another test concerns B. subtilis. Kind of test: Membrane potential with fluorescent probe diS-C3-(5). Particulars: 50 µM, diS-C3-(5) fluorescence. Format: cell-based. Here is the method: The membrane potential of B. subtilis was assessed by measuring the fluorescence emitted by the potential-dependent probe, diS-C3-(5). Bacterial cells derived from the overnight culture of B. subtilis were inoculated into a fresh LB medium and allowed to grow for 24 h until reaching an optical density of 0.8 at 600 nm. Subsequently, the bacteria were subjected to a 20-fold dilution in a buffer comprising 100 mM of KCl and 10 mM of Tris, adjusted to a pH of 7.4. Fluorescence measurements were conducted at 670 nm (with excitation at 630 nm) using a Fluorat-02-Panorama fluorimeter manufactured by Lumex Instruments in St. Petersburg, Russia.

The next test concerns 70S E. coli ribosome. The test can be described thus: Competition-binding assay, displacement of BODIPY-Bac(1–10), fluorescence anisotropy. The conditions noted are these: CI (α = 0.05), read-out: apparent dissociation constant (KD). Here is the method:
70S ribosomes were isolated from E. coli MRE600 cells according to a published procedure. The binding of BODIPY-Bac(1–10) to 70S E. coli ribosomes was performed according to the following procedure. BODIPY-Bac(1–10) (16 nM) was incubated with ribosomes (from 0.5 nM to 2000 nM) for 2 h at 26 °C in a buffer containing 20 mM of HEPES-KOH (pH 7.5), 50 mM of NH4Cl, 10 mM of Mg(CH3COO)2, 4 mM of β-mercaptoethanol, and 0.05% Tween-20. The binding affinities of peptides 1 and 2, their TPP analogs 3–5, as well as the control compounds for the E. coli ribosome were analyzed via a competition-binding assay using fluorescently labeled BODIPY-Bac(1–10) or BODIPY-ERY, as described before in [38, 54]. The fluorescent compound (16 nM) was mixed with ribosomes (84 nM for BODIPY-Bac(1–10) and 46 nM for BODIPY-ERY) in the buffer. Solutions of the tested compounds were added to the obtained complexes to final concentrations ranging from 0.01 to 100 µM. The mixtures were incubated for 2 h at 26 °C, and then the values of fluorescence anisotropy were measured with a VICTOR X5 Multilabel Plate Reader (PerkinElmer, Waltham, MA, USA) using a 384-well plate. The excitation wavelength was 485 nm, and the emission wavelength was 535 nm. From the data obtained, apparent dissociation constants were calculated.
(In general: Fluorescence polarisation rises when a labelled molecule tumbles more slowly, as on binding a larger partner.)

Test [2] concerns bacterial translation (E. coli S30 extract). Kind of test: In vitro translation inhibition of firefly luciferase mRNA, E. coli S30 extract. The conditions noted are these: 30 µM. Format: biochemical. Here is the method:
Briefly, in vitro-transcribed firefly luciferase mRNA (fluc) was translated using the E. coli S30 Extract System for Linear Templates (Promega, Madison, WI, USA). Reaction mixtures (with a 5 μL total volume) supplemented with 0.1 mM of a mixture of all canonical amino acids, 4 U of RiboLock RNase Inhibitor (Thermo Fisher Scientific, Waltham, MA, USA), and 0.1 mM of D-luciferin (Sigma-Aldrich, Burlington, MA, USA) were pre-incubated at RT for 5 min after the addition of the tested compounds at a final concentration of 30 µM. Then, 50 ng of the mRNA was added to each reaction tube, and the mixtures were immediately subjected to continuous chemiluminescence measurements using the VICTOR X5 Multilabel Plate Reader (PerkinElmer, Waltham, MA, USA) at 37 °C for 30 min. The maximal rates of the firefly luciferase (Fluc) accumulation were calculated using the OriginPro 7.5 software. The values were normalized to a positive control (0.3% DMSO, assigned a value of 100%).

Where [3] appears, read: read-out: IC50 (50% inhibition of viability of cells), A549, 72 h, MTT.
[4] abbreviates: MCF7, 72 h, MTT, read-out: IC50 (50% inhibition of viability of cells).
Setting [5] is: HEK293T, MTT, read-out: IC50 (50% inhibition of viability of cells).
The mark [6] stands for this setting: VA13, 72 h, MTT, read-out: IC50 (50% inhibition of viability of cells).
[7] abbreviates: B. subtilis-CFR (chloramphenicol-resistant), 37 °C.

In the case of `CCCC[P+](c1ccccc1)(c1ccccc1)c1ccccc1` [C4-TPP, reference compound], the IC50 (as a rule, the point on the concentration scale where inhibition reaches its midpoint) in the test with A549 (setting [3]) was found to be 6200 ± 900 nM; in the test with MCF7 (setting [4]), 8000 ± 2000 nM; in the test with HEK293T (setting [5]), 2900 ± 500 nM; in the test on VA13 (setting [6]), 11000 ± 2000 nM. The MIC in the test with B. subtilis CFR (setting [7]) was over 100 µM; with B. subtilis 168 (B. subtilis 168, 37 °C, 18 h) it was over 100 µM; against E. coli BW25113, over 100 µM; in the test with E. coli JW0368 ΔsbmA (E. coli ∆sbmA, 37 °C), over 100 µM.

For the molecule `CCCCCCCCCC[P+](c1ccccc1)(c1ccccc1)c1ccccc1` [C10-TPP, reference compound], the IC50 in the test on A549 (setting [3]) is under 160 nM; with MCF7 (setting [4]), 250 ± 70 nM; with HEK293T (setting [5]) it was under 160 nM; with VA13 (setting [6]), under 160 nM. For the same molecule, the MIC is 0.8 µM against B. subtilis CFR (setting [7]); 1.6 µM against B. subtilis 168 (B. subtilis 168, 37 °C, 18 h); 50 µM with E. coli BW25113; 50 µM against E. coli JW0368 ΔsbmA (E. coli ∆sbmA, 37 °C). Further, the “comparison of MIC values, E. coli ΔsbmA versus wild type” value in the test on E. coli JW0368 ΔsbmA (MIC values of Table 1) was “the same”. Further, the “inhibitory effect on growth of bacterial cells” value (“inhibitory effect on growth” below) in [1] is given as “caused a large growth inhibition zone”. Moreover, the “reporter induction (Katushka2S red pseudocolor = protein synthesis inhibition)” value in [1] is reported as “did not induce the reporters”.

In the case of `COc1cccc2c1C(=O)c1c(O)c3c(c(O)c1C2=O)C[C@@](O)(C(=O)CO)C[C@@H]3O[C@H]1C[C@H](N)[C@H](O)[C@H](C)O1` [Doxorubicin, reference compound], the IC50 in the test on A549 (Homo sapiens, A549, 72 h, read-out: IC50 (50% inhibition of viability of cells)) was 1200 ± 100 nM; with MCF7 (Homo sapiens, MCF7, 72 h, MTT, read-out: IC50 (50% inhibition of viability of cells)) it was 1700 ± 200 nM; in the test with HEK293T (Homo sapiens, HEK-293T, HEK293T, MTT, read-out: IC50 (50% inhibition of viability of cells)) it was under 1600 nM; in the test on VA13 (Homo sapiens, VA-13, VA13, 72 h, MTT, read-out: IC50 (50% inhibition of viability of cells)), 1200 ± 300 nM.

On to `CC[C@H]1OC(=O)[C@H](C)[C@@H](O[C@H]2C[C@@](C)(OC)[C@@H](O)[C@H](C)O2)[C@H](C)[C@@H](O[C@@H]2O[C@H](C)C[C@H](N(C)C)[C@H]2O)[C@](C)(O)C[C@@H](C)C(=O)[C@H](C)[C@@H](O)[C@]1(C)O` [ERY, erythromycin, reference compound], for which the MIC was under 0.1 µM with B. subtilis CFR (Bacillus subtilis, B. subtilis-CFR (chloramphenicol-resistant), 37 °C); under 0.1 µM in the test with B. subtilis 168 (Bacillus subtilis, B. subtilis 168, 37 °C, 18 h); 170 µM (≈ 125 µg/mL) against E. coli BW25113 (Escherichia coli); 170 µM (≈ 125 µg/mL) in the test on E. coli JW0368 ΔsbmA (Escherichia coli). Further, the “reporter induction (Katushka2S red pseudocolor = protein synthesis inhibition)” value in test [1] is on record as “red pseudocolor reporter induction was observed”.

For H-RRIRPRPPRL-OH [Compound 1, Bac(1–10)], in the test with B. subtilis, the “effect on membrane potential of B. subtilis” value is “did not affect the membrane potential”. In the test with 70S E. coli ribosome, the Kd was 1400 ± 100 nM. The MIC with B. subtilis CFR (CFR) is reported as over 50 µM; against B. subtilis 168 (168, 18 h), over 50 µM. Also, the “inhibitory effect on growth” value in [1] was “did not exhibit any antibacterial activity”. In [2], the “inhibition of bacterial translation of firefly luciferase (Fluc) mRNA” value was “practically did not inhibit”.

For the molecule “H-RRIRPRPPYL-OH [Compound 2, Bac(1–10, R/Y)]”, in the test on B. subtilis, the “effect on membrane potential of B. subtilis” value is recorded as “did not affect the membrane potential”. Also, the IC50 is over 50000 nM with A549 (72 h), over 20000 nM in the test with MCF7 (72 h), over 50000 nM with HEK293T and over 50000 nM in the test with VA13 (72 h). Besides, the Kd in the test on 70S E. coli ribosome was 1000 ± 100 nM. Further, the MIC in the test with E. coli BW25113 is over 100 µM; against E. coli JW0368 ΔsbmA (E. coli ∆sbmA, 37 °C), over 100 µM. For the same molecule, the “inhibitory effect on growth” value in test [1] is “did not exhibit any antibacterial activity”. Further, in test [2], the “inhibition of bacterial translation of firefly luciferase (Fluc) mRNA” value is given as “practically did not inhibit”.
